Publication PMC5454865 (International Journal of Molecular Sciences, 2017)
“And” between values parts separate entries of the source, which are not always exact repeats. Identical values can stand only once. Like-named read-outs stand apart in the source and are kept apart here. Values belong to the compound of their own block, whether it stands above or below them.

Key:
[1] = target: T1, CYP2B6 (Homo sapiens, UniProt P20813); experiment: CYP2B6-catalyzed bupropion hydroxylation, LC-MS/MS; type: in vitro ADME; details: human liver microsomes
T1 construct: pooled human liver microsomes (0.2 mg/mL), 50 μM bupropion; tissue Corning Life Sciences 452161; host or cells: pooled human liver microsomes
T1 sequence (P20813 1-491): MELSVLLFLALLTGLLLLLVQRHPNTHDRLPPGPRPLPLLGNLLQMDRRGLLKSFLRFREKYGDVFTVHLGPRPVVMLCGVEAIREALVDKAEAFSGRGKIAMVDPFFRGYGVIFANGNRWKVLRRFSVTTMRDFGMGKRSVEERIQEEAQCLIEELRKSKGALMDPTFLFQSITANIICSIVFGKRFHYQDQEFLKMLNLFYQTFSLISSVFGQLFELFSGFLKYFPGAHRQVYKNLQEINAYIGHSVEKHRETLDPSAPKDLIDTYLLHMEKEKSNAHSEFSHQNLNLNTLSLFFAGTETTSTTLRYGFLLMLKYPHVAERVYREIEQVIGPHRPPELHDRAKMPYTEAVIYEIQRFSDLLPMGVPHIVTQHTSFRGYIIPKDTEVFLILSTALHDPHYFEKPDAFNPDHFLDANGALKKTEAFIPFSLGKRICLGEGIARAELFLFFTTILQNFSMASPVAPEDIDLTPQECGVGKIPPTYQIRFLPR
Experimental: After 3 min pre-incubation at 37 °C, the reaction mixtures were incubated with the addition of NADPH in a shaking water bath for 15 min at 37 °C. The reaction was stopped by adding 100 μL of ice-cold d9-1′-hydroxybufuralol (internal standard) in methanol. The mixtures were centrifuged at 13,000× g for 4 min at 4 °C. All incubations were performed in triplicate, and the average values were used for the subsequent calculations. […] Then, the reaction mixtures were incubated with the addition of NADPH and bupropion for 15 min at 37 °C. The control reaction was performed by the addition of acetonitrile instead of the test compounds. Hydroxybupropion concentrations were quantified using the LC-MS/MS method described above; the SRM transitions for hydroxybupropion and d9-1′-hydroxybufuralol were 256.1 > 238.0 and 287.2 > 187.0, respectively.
The IC50 values were calculated using SigmaPlot ver.

[2] = target: T2, CYP2A6 (Homo sapiens, UniProt P11509); experiment: CYP2A6-catalyzed coumarin 7-hydroxylation, substrate cocktail, LC-MS/MS; details: human liver microsomes
T2 sequence (P11509 1-494): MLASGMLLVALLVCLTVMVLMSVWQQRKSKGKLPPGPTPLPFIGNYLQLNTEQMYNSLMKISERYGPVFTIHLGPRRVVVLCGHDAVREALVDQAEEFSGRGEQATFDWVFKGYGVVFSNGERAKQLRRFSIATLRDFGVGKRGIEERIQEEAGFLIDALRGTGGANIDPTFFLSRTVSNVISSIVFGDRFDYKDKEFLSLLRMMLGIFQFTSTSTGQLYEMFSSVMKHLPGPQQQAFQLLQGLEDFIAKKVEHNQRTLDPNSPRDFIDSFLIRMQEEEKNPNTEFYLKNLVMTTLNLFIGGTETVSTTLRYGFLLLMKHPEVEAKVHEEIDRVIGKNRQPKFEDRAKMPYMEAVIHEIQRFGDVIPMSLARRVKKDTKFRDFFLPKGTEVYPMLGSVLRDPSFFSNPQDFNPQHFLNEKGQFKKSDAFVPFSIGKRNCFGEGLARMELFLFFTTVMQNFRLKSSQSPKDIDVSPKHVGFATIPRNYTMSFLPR
Experimental: (§1) After 3 min pre-incubation at 37 °C, the reaction mixtures were incubated for 15 min at 37 °C with the addition of NADPH in a shaking water bath. The reaction was stopped by adding 100 μL of ice-cold methanol containing internal standards (d9-1′-hydroxybufuralol for 1′-hydroxybufuralol, 4′-hydroxydiclofenac, 7-hydroxycoumarin, 1′-hydroxymidazolam, and 4′-hydroxymephenytoin; ^13C2, ^15N-acetaminophen for acetaminophen and N-desethylamodiaquine). The mixtures were centrifuged at 13,000× g for 4 min at 4 °C. All assays were performed in triplicate and the average values were used for the subsequent calculations. […] Then, the reaction mixtures were incubated with addition of the seven-CYP probe substrate cocktail for 15 min at 37 °C. The control reaction was performed by adding acetonitrile instead of the test compounds.
(§2) Seven metabolites were simultaneously determined using a tandem mass spectrometer (TSQ Quantum Access; Thermo Scientific, San Jose, CA, USA) equipped with an electrospray ionization (ESI) source coupled to a NANOSPACE SI-2 LC system (Shiseido, Tokyo, Japan). The column and autosampler temperatures were 50 and 6 °C, respectively. The ESI source settings for the ionization of metabolites were as follows: polarity, positive ion mode; capillary voltage, 4200 V; capillary temperature, 330 °C; vaporizer temperature, 350 °C; auxiliary gas pressure, 15 psi; and sheath gas pressure, 35 psi. […] Analytical data were processed using Xcalibur™ software (Thermo Scientific, San Jose, CA, USA).
(§3) The IC50 values were calculated using SigmaPlot ver. 11.0 (Systat Software, Inc., San Jose, CA, USA).

[3] = target: T3, CYP1A2 (Homo sapiens, UniProt P05177); experiment: CYP1A2-catalyzed phenacetin O-deethylation, substrate cocktail, LC-MS/MS; details: human liver microsomes
T3 sequence (P05177 1-516): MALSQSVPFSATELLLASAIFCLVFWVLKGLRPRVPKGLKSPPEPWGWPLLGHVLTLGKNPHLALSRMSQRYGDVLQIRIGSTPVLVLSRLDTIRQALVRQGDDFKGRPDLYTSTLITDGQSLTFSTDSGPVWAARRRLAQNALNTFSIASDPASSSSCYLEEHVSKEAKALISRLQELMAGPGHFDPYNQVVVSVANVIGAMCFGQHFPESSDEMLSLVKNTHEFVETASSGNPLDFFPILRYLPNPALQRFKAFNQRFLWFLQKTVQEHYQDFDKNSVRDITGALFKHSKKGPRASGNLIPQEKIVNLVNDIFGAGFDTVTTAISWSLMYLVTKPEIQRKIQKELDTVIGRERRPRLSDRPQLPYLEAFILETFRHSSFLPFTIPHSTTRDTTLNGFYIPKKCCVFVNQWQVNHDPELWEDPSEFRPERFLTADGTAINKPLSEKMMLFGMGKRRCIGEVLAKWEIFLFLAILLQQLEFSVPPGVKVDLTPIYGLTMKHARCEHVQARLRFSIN
Experimental: as §1, §2, §3

[4] = target: T4, CYP2C8 (Homo sapiens, UniProt P10632); experiment: CYP2C8-catalyzed amodiaquine N-deethylation, substrate cocktail, LC-MS/MS; details: human liver microsomes
T4 sequence (P10632 1-490): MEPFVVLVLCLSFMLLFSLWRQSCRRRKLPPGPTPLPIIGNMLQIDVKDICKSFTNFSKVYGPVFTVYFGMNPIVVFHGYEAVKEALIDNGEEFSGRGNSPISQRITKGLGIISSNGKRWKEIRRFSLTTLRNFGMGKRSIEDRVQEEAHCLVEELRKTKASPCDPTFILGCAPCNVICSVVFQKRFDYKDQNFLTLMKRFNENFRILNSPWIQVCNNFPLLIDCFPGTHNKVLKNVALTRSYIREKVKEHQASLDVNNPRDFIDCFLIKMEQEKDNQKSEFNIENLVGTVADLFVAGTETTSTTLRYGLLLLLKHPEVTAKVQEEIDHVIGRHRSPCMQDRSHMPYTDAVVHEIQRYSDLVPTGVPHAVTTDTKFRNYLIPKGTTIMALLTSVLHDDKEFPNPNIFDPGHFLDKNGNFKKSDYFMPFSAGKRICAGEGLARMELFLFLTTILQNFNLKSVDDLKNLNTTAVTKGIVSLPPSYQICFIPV
Experimental: as §1, §2, §3

[5] = target: T5, CYP2D6 (Homo sapiens, UniProt P10635); experiment: CYP2D6-catalyzed bufuralol 1′-hydroxylation, substrate cocktail, LC-MS/MS; details: human liver microsomes
T5 sequence (P10635 whole entry): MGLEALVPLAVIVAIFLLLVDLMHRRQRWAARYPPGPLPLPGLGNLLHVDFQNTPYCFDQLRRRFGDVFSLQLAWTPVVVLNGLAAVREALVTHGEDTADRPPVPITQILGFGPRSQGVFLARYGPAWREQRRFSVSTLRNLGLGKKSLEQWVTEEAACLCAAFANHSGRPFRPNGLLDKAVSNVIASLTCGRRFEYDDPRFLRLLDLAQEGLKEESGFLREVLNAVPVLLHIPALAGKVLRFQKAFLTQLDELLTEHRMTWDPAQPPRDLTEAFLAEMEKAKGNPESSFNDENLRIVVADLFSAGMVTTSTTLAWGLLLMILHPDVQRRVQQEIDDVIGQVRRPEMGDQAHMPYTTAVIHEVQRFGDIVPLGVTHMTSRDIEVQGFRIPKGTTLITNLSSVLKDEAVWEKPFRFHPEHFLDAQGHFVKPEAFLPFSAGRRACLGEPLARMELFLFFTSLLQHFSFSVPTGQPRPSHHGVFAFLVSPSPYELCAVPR
Experimental: as §1, §2
(§4) The IC50 values were calculated using SigmaPlot ver. 11.0 (Systat Software, Inc., San Jose, CA, USA). Ki, kinact, and the inhibition mode were determined using Enzyme Kinetics ver. 1.1 (Systat Software, Inc.).

[6] = target: T6, CYP3A4 (Homo sapiens, UniProt P08684); experiment: CYP3A4-catalyzed midazolam 1′-hydroxylation, substrate cocktail, LC-MS/MS; details: human liver microsomes
T6 sequence (P08684 whole entry): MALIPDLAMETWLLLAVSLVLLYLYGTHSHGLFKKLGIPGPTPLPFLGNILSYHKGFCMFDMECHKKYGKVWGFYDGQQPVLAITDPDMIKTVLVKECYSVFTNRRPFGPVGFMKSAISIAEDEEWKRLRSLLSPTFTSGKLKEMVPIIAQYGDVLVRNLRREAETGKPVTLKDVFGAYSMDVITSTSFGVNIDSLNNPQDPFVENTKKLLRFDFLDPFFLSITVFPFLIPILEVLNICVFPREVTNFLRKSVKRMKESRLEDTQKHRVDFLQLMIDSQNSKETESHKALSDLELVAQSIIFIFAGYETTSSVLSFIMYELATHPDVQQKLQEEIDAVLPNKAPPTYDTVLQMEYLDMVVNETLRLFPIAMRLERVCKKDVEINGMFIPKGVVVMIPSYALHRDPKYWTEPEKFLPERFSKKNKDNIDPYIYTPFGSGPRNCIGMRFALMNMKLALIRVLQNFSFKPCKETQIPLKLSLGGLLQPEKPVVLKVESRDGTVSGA
Experimental: as §1, §2, §4

[7] = target: T7, CYP2C9 (Homo sapiens, UniProt P11712); experiment: CYP2C9-catalyzed diclofenac 4′-hydroxylation, substrate cocktail, LC-MS/MS; details: human liver microsomes
T7 sequence (P11712 whole entry): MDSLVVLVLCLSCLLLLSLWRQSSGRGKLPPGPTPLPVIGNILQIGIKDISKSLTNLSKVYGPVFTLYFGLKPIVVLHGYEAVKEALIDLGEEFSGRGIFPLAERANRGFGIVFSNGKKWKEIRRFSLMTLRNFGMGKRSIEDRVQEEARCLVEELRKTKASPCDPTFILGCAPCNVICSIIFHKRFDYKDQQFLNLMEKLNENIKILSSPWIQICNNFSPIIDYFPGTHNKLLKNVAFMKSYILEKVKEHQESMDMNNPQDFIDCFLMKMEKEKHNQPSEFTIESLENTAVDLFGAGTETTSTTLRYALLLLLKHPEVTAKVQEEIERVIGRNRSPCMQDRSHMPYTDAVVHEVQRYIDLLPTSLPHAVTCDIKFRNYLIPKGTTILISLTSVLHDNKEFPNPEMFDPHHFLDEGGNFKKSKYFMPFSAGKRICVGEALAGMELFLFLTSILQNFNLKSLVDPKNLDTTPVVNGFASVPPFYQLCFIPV
Experimental: as §1, §2, §3

[8] = target: T8, CYP2C19 (Homo sapiens, UniProt P33261); experiment: CYP2C19-catalyzed [S]-mephenytoin 4′-hydroxylation, substrate cocktail, LC-MS/MS; details: human liver microsomes
T8 sequence (P33261 whole entry): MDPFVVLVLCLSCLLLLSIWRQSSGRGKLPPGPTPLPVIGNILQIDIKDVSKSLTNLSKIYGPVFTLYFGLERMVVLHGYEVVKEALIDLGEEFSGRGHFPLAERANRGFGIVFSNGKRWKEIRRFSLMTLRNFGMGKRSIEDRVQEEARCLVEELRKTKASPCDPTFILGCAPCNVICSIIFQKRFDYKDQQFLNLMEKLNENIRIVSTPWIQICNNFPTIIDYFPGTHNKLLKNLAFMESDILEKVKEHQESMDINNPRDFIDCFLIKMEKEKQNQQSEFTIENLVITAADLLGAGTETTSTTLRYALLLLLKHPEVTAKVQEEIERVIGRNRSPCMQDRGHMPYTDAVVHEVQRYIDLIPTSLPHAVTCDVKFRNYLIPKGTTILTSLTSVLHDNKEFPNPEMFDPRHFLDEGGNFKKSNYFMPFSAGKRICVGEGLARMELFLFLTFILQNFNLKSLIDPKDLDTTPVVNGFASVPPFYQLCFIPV
Experimental: as §1, §2, §3

[9] = target: T6, CYP3A4; details: human liver microsomes; cited from earlier work
[10] = target: T7, CYP2C9; design: incubated with human liver microsomes (0.1 mg/mL); tissue Corning Life Sciences 452161; host or cells: pooled human liver microsomes; details: cited from earlier work
[11] = target: T4, CYP2C8
Experimental: as §1, §2, §3

[12] = target: T8, CYP2C19
Experimental: as §1, §2, §3

[13] = target: T3, CYP1A2; details: microsomes
Experimental: as §1, §2, §3

[14] = target: T7, CYP2C9; details: microsomes
Experimental: as §1, §2, §3

[15] = target: T5, CYP2D6; details: microsomes
Experimental: as §1, §2, §4

[16] = target: T6, CYP3A4; details: microsomes
Experimental: as §1, §2, §4

[17] = tested on: eight CYP enzymes (CYPs 1A2, 2A6, 2B6, 2C8, 2C9, 2C19, 2D6, and 3A4); experiment: IC50 shift after 30-min pre-incubation with NADPH, panel of eight CYP enzymes; details: human liver microsomes
Experimental: as §1
After 3 min pre-incubation at 37 °C, the reaction mixtures were incubated with the addition of NADPH in a shaking water bath for 15 min at 37 °C. The reaction was stopped by adding 100 μL of ice-cold d9-1′-hydroxybufuralol (internal standard) in methanol. The mixtures were centrifuged at 13,000× g for 4 min at 4 °C. All incubations were performed in triplicate, and the average values were used for the subsequent calculations. […] Then, the reaction mixtures were incubated with the addition of NADPH and bupropion for 15 min at 37 °C. […]

[18] = target: T8, CYP2C19; details: microsomes
Experimental: as §1, §2, §3

Inhibition of CYP2B6 activity at 100 μM [1]: negligibly inhibited
Inhibition of CYP2A6 activity at 100 μM [2]: negligibly inhibited
Inhibition of CYP1A2 activity at 100 μM [3]: negligibly inhibited
Inhibition of CYP2C8 activity at 100 μM [4]: negligibly inhibited
Inhibition of CYP2D6 activity at 100 μM [5]: negligibly inhibited
Inhibition of CYP3A4 activity at 100 μM [6]: negligibly inhibited
Inhibition of CYP2C9 activity at 100 μM [7]: negligibly inhibited
Inhibition of CYP2C19 activity at 100 μM [8]: negligibly inhibited
Compound: COc1ccc([C@@H]2OC[C@H]3[C@@H]2CO[C@@H]3c2cc(OC)c(OC)c(OC)c2)cc1OC [epimagnolin A]

Compound: CC(C)=CCC/C(C)=C/COc1c2ccoc2cc2oc(=O)ccc12 [bergamottin]
kinact/Ki against CYP3A4 [9]: 3.3e+07 M⁻¹ s⁻¹

Compound: COc1cc([C@@H]2c3cc4c(cc3[C@H](O)[C@H]3COC(=O)[C@H]23)OCO4)cc(OC)c1OC [podophyllotoxin]
kinact/Ki against CYP3A4 [9]: 2.272e+08 M⁻¹ s⁻¹
Ki ([10]; read-out: Ki, CYP2C9 activity): 2 µM

Compound: COc1cc([C@@H]2c3cc4c(cc3C[C@H]3COC(=O)[C@@H]32)OCO4)cc(OC)c1OC [deoxypodophyllotoxin]
Ki ([10]; read-out: Ki, CYP2C9 activity): 3.5 µM

Compound: COc1cc([C@H]2OC[C@H]3[C@@H]2CO[C@@H]3c2ccc3c(c2)OCO3)cc(OC)c1OC [aschantin]
kinact/Ki against CYP3A4 [9]: 8.2e+07 M⁻¹ s⁻¹
kinact, mechanism-based inhibition of CYP2C9 [10]: 0.044 min⁻¹
Ki ([10]; read-out: Ki, mechanism-based inhibition of CYP2C9): 3.7 µM

Inhibition of CYP2B6 activity at 100 μM [1]: negligibly inhibited
Inhibition of CYP2A6 activity at 100 μM [2]: negligibly inhibited
Inhibition of CYP1A2 activity at 100 μM [3]: negligibly inhibited
Inhibition of CYP2C8 activity at 100 μM [4]: negligibly inhibited
Inhibition of CYP2D6 activity at 100 μM [5]: negligibly inhibited
Inhibition of CYP3A4 activity at 100 μM [6]: negligibly inhibited
Inhibition of CYP2C9 activity at 100 μM [7]: negligibly inhibited
Inhibition of CYP2C19 activity at 100 μM [8]: negligibly inhibited
Compound: COc1ccc([C@H]2OC[C@H]3[C@@H]2CO[C@@H]3c2cc(OC)c(OC)c(OC)c2)cc1OC [magnolin]

Compound: CC[C@H]1OC(=O)[C@H](C)[C@@H](O[C@H]2C[C@@](C)(OC)[C@@H](O)[C@H](C)O2)[C@H](C)[C@@H](O[C@@H]2O[C@H](C)C[C@H](N(C)C)[C@H]2O)[C@](C)(OC)C[C@@H](C)C(=O)[C@H](C)[C@@H](O)[C@]1(C)O [clarithromycin]
kinact/Ki against CYP3A4 [9]: 1.7e+07 to 2.17e+08 M⁻¹ s⁻¹

Compound: O=c1c2ccccc2nc2n1CCc1c-2[nH]c2ccccc12 [rutaecarpine]
kinact/Ki against CYP3A4 [9]: 5.98e+07 M⁻¹ s⁻¹

Compound: CNCCC(Oc1ccc(C(F)(F)F)cc1)c1ccccc1 (centres unmarked) [fluoxetine]
kinact/Ki against CYP3A4 [9]: 5.33e+07 M⁻¹ s⁻¹

Inhibition of CYP2B6 activity at 100 μM [1]: without inhibition
IC50 [11]: 85 µM and 67.2 µM
IC50 [12]: 55.1 µM and 49.8 µM
Inhibition of CYP1A2 activity at 100 μM [13]: without inhibition
Inhibition of CYP2C9 activity at 100 μM [14]: without inhibition
Inhibition of CYP2D6 activity at 100 μM [15]: without inhibition
Inhibition of CYP3A4 activity at 100 μM [16]: without inhibition
Inhibition of CYP2A6 activity at 100 μM [2]: without inhibition
IC50 value shift of eight CYP enzymes after 30-min pre-incubation [17]: did not cause the IC50 value shift
Compound: COc1cc([C@H]2OC[C@H]3[C@@H]2CO[C@@H]3c2cc(OC)c(OC)c(OC)c2)cc(OC)c1OC [dimethyllirioresinol]

Inhibition of CYP2B6 activity at 100 μM [1]: negligibly inhibited
Inhibition of CYP1A2 activity at 100 μM [13]: negligibly inhibited
Inhibition of CYP2C9 activity at 100 μM [14]: negligibly inhibited
Inhibition of CYP2C19 activity at 100 μM [18]: negligibly inhibited
Inhibition of CYP2D6 activity at 100 μM [15]: negligibly inhibited
Inhibition of CYP3A4 activity at 100 μM [16]: negligibly inhibited
Inhibition of CYP2A6 activity at 100 μM [2]: negligibly inhibited
Inhibition of CYP2C8 activity at 100 μM [4]: negligibly inhibited
IC50 value shift of eight CYP enzymes after 30-min pre-incubation [17]: did not cause the IC50 value shift
Compound: COc1ccc([C@H]2OC[C@H]3[C@@H]2CO[C@@H]3c2ccc(OC)c(OC)c2)cc1OC [eudesmin]
